Results: patent US20050136108A1, “Stepwise delivery of topiramate over prolonged period of time” (priority 2003, published 2005)
In brackets after ≈: the same amount, converted by molar mass.

What was measured:
[1] = Intrinsic dissolution rate in water; format: physicochemical; settings: water at 37° C.
Excerpt: Intrinsic dissolution is a method that utilizes a compressed disc of known area (a constant surface), effectively eliminating surface area and surface electrical charges as dissolution variables. The dissolution rate obtained by this method is termed the intrinsic dissolution rate and is characteristic of each solid compound in a given solvent under the fixed experimental conditions. The value is generally expressed as mg dissolved per minute per centimeters squared and is useful in predicting probable absorption problems due to dissolution rate. […] See USP General Chapter <1087> for more information.

[2] = in vivo; cited from earlier work
[3] = cited from earlier work
[4] = Aqueous solubility of topiramate; format: physicochemical; settings: water, 37 °C, thermodynamic from solid, range stated without source
Procedure: Aqueous solubility is determined by adding the therapeutic agent to stirred or agitated water maintained in a constant temperature bath at a temperature of 37 degrees centigrade until no more agent dissolves. The resulting solution saturated with active agent is then filtered, typically under pressure through a 0.8-micron Millipore filter, and the concentration in solution is measured by any appropriate analytical method including gravimetric, ultraviolet spectrophometry, chromatography, and the like.

dissolution rate in water [1]: below 0.6 mg/min/cm2
solubility [4]: 9.8 to 13 mg/mL (≈ 28.9 to 38.3 mM)
Compound: CC1(C)O[C@@H]2[C@@H](CO[C@@]3(COS(N)(=O)=O)OC(C)(C)O[C@@H]23)O1 [Topiramate, topiramate]
excretion [2]: excreted largely through the urine
metabolism [2]: not extensively metabolized
pharmacokinetics (dose dependence of blood plasma concentration) [2]: linear
solubility in alkaline solutions containing sodium hydroxide or sodium phosphate ([3]; alkaline solutions): soluble
solubility in acetone, dimethylsulfoxide and ethanol ([3]; organic solvents): soluble
solubility of topiramate in water ([3]; water): about 9.8 mg/ml
